Test results taken from publication PMC9078765, “Utilizing Network Pharmacology and Molecular Docking Integrated Surface Plasmon Resonance Technology to Investigate the Potential Targets and Mechanisms of Tripterygium wilfordii against Pulmonary Artery Hypertension” (Evidence-based Complementary and Alternative Medicine : eCAM, 2022).

Molecular target: T1, CASP3 (Casp3) (Homo sapiens, UniProt P42574)
T1 construct: commercial recombinant protein, captured on Ni-NTA chip (His tag implied)
T1 sequence (P42574 29-175): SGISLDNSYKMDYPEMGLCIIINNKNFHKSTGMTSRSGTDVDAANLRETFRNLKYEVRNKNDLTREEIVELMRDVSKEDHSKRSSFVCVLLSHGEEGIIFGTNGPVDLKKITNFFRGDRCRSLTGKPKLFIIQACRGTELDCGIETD
T1 sequence (P42574 176-277): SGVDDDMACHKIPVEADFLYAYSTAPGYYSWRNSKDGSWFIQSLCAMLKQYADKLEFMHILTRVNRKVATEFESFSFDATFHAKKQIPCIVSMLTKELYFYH
Assay: SPR (OpenSPR, NTA chip, one-to-one model)
Format: binding
Excerpt: SPR (OpenSPR, NTA chip, one-to-one model) on CASP3 (Casp3)

Kd: 7.65 µM
SMILES: O=c1c(O)c(-c2ccc(O)cc2)oc2cc(O)cc(O)c12 [Kaempferol]
